Key:
Assay type in all cases: in vivo
[1] = system: operant alcohol self-administration in Wistar rats; assay: Operant alcohol self-administration, repeated oral pellet treatment (A-B-A); settings: 10 mg/kg oral in palatable food pellet, 2-hr before daily sessions, 7 days (Days 6-12)
Description: Repeated treatment with Compound 1. To evaluate effects of repeated treatment with Compound 1 on operant alcohol self-administration, a separate group of rats (n=12) was trained to self-administer alcohol as described above. After operant behavior reached a stable baseline, habituation to i.p. injections were conducted as described above. […] Another group of rats (n=12) was then trained to self-administer alcohol and a new injection protocol (e.g., 2-hr pretreatment time) was initiated. […] In a final attempt to evaluate repeated treatment, we re-established baseline behavior in the same rats and administered Compound 1 (0 and 10 mg/kg) orally in a palatable food pellet as previously reported. Doses were administered according to an A-B-A (vehicle-Compound 1-vehicle) experimental design with 5 consecutive days of exposure to each vehicle treatment and 7 days of exposure to Compound 1. There was no observable stress response using this method of exposure. Operant self-administration (number of alcohol reinforced lever presses) was recorded during daily 15-min test sessions (n=12 rats).
In a final attempt to salvage the study, injections were halted in the second group of rats and EtOH self-administration behavior was allowed to stabilize over a 1-week period. […]

[2] = system: voluntary home-cage alcohol drinking by Wistar rats; assay: Home-cage alcohol drinking, repeated treatment (A-B-A design)
Description: Home-cage alcohol drinking method. Oral alcohol and water intake were examined using a two-bottle choice protocol, which is standard in the field and commonly used in our laboratory. Male Wistar rats (n=12) were first adapted to drinking from a 50 ml conical tube fitted with a standard stainless-steel ball bearing sipper tube that limits spillage. Then, two bottles were place on the cage daily. One bottle contained an alcohol solution and the other contained water. Bottles containing fresh solutions were weighed daily before and after a 24 hr access period. After drug treatment, bottles were weighed after 1 hr and 24 hrs of access. Each week, rats had 4-5 days of sweetened alcohol and water available and the remaining days only water.
Briefly, rats were first exposed to alcohol (10% v/v)+sucrose (5% w/v). versus water in the two bottles. Then, over a period of 6-weeks, the concentrations of alcohol and sucrose were gradually adjusted to alcohol (8% v/v)+sucrose (2% w/v) to achieve intake of pharmacologically relevant doses of alcohol. Rats were maintained at this concentration for the duration of the experiment for both acute (3.1.a) and chronic (3.1.b) home-cage drinking studies. Use of sweetened alcohol solutions in preclinical research provides face validity to the binge-intoxication stage of alcohol addiction in humans where sweeteners are commonly added to alcohol.
Repeated treatment with Compound 1. To evaluate effects of repeated treatment with Compound 1 on home-cage alcohol drinking, baseline intake of sweetened alcohol and water, and habituation to i.p. injections was conducted as described above in a separate group of male Wistar rats (n=12). During habituation to i.p. injections, rats were moved to a 7 day per week alcohol access schedule to allow for chronic daily treatment. Rats were then administered vehicle (4 consecutive days), Compound 1 (3 mg/kg, 7 consecutive days), then vehicle (4 consecutive days) according to an A-B-A experimental design for a total of 15 days. Access to alcohol was provided 1-hr after vehicle or Compound 1 injection. Alcohol and water intake were measured as described above after 1-hr and 24-hrs of access.

[3] = system: Wistar rats, open-field locomotor activity; assay: Open-field locomotor test for nonspecific behavioral effects; settings: 3 mg/kg i.p., 1-hr pretreatment
Description: Locomotor activity: testing for nonspecific behavioral effects. After completion of the Compound 1 dose response curve, potential nonspecific effects of Compound 1 (3 mg/kg) were assessed using the open-field locomotor test. This test evaluates potential effects on motor activity and anxiety-like behavior. Rats were administered Compound 1 (0 or 3 mg/kg, i.p.) in a randomized counterbalanced order. After a 1-hr pretreatment period (matching the pretreatment period used in the drinking study), rats were placed in the open-field apparatus and locomotor activity was computer-monitored for 1-hr. To assess anxiety-like behavior, activity in the center zone of the open field was analyzed.
Open-field locomotor test for nonspecific behavioral effects. Pharmacological manipulations have the potential to alter rodent behavior by producing nonspecific effects on motor ability, learning and memory, or emotional processing. The open field test is a widely used method for assessing all these potential nonspecific effects in a single test. In this method, rodents are injected with a test compound and placed in an open-field apparatus that records ambulatory behavior in real time via computer analysis of photobeam breaks (FIG. 3A). […] Similarly, Compound 1 (3 mg/kg) had no effect on summary measures of total ambulatory distance (FIG. 3C) or total ambulatory time (FIG. 3D) as compared to vehicle control.

`N#Cc1cc(Cl)cc(-c2cc(-c3ccc(F)cn3)ncn2)c1` [Compound 1, 3-chloro-5-[6-(5-fluoropyridin-2-yl)pyrimidin-4-yl]benzonitrile] was tested, and the “EtOH reinforced lever press responses, repeated treatment” value [1] was “failed to alter operant alcohol self-administration”, the “H2O intake, 1-hr access, averaged across the 3 experimental phases” value ([2]; 3 mg/kg i.p. daily for 7 days) was “decreased water intake” and the “H2O intake, 24-hrs access, averaged across the experimental phases” value ([2]; 3 mg/kg i.p. daily for 7 days) was “reduction in H2O intake as compared to the first vehicle condition only”. For the same compound, the “alcohol intake, 24-hr access, averaged over each treatment condition” value ([2]; 3 mg/kg i.p. daily for 7 days) was “no effect”, the “average alcohol intake over the 7-day treatment phase, 1-hr access, vs Veh-1 and Veh-2” value ([2]; 3 mg/kg i.p. daily for 7 days) was “significantly decreased alcohol intake” and the “H2O intake, 1-hr access, individual treatment days” value ([2]; 3 mg/kg i.p. daily, days 5-11) was “failed to identify a significant change at a particular treatment day”. The “H2O intake, 24-hrs access, individual treatment days” value ([2]; 3 mg/kg i.p. daily, days 5-11) was “significant reductions in H2O intake at days 7 and 11”, the “alcohol intake, 1-hr access, individual treatment days vs day 4 vehicle” value ([2]; 3 mg/kg i.p. daily, days 5-11) was “reduced alcohol intake only on day 5” and the “alcohol intake, 24-hr access, individual treatment days vs day 4 vehicle” value ([2]; 3 mg/kg i.p. daily, days 5-11) was “reduced alcohol intake only on day 5”. For the same compound, the “motor activity in the center zone of the open field (anxiety-like behavior)” value [3] was “normal avoidance of the center zone”, the total ambulatory distance [3] was “no effect” and the total ambulatory time [3] was “no effect”. For the same compound, the “initial exploration or habituation to the novel open-field environment” value ([3]; 1-hr test) was “no effect”.

From patent publication US20250249001A1, “METHODS OF TREATING SUBSTANCE USE DISORDER WITH 4-(3-CYANOPHENYL)-6-PYRIDINYLPYRIMIDINE MGLU5 NEGATIVE ALLOSTERIC MODULATORS” (Tempero Bio, Inc., priority 2022, published 2025)
